17 molecules from patent publication US10336762B2 (priority 2017, dated 2019) can be followed below.

Test [1] concerns TNFα. Briefly: cells. Conditions: Homo sapiens, Monocyte, LPS-stimulated human monocytes, TNFα content; read-out: EC50 TNF. It is filed as cell-based, human.
The target in test [2] is IRAK4 enzyme (Homo sapiens (Human), UniProt Q9NWZ3). As to the kind of experiment: biochemical. It is filed as biochemical. Conditions: IRAK4 enzyme, TR-FRET (HTRF), 500 μM ATP.
Chain of IRAK4 enzyme (Q9NWZ3 whole entry): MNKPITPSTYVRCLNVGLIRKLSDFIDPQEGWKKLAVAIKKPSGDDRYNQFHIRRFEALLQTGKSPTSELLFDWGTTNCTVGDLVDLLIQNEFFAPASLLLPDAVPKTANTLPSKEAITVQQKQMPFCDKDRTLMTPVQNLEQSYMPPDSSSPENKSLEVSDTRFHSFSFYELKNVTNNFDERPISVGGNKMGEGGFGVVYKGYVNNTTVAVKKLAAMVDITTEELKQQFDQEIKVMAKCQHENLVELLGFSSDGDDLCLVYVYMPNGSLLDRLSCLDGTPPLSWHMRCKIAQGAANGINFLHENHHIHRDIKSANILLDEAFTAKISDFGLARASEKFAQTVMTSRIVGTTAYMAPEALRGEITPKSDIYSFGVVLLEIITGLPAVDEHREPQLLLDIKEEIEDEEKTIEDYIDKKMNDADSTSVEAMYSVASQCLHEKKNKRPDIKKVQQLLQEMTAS

As for `COC12CCC(Nc3cc(-c4ccc5cc(C#N)cnn45)ncc3C(=O)NC[C@@H](F)C(C)(C)O)(CC1)CC2` [Example 414, 6-(3-cyanopyrrolo[1,2-b]pyridazin-7-yl)-N-((R)-2-fluoro-3-hydroxy-3-methylbutyl)-4-((4-methoxybicyclo[2.2.2]octan-1-yl)amino)nicotinamide], in test [1], the EC50 was found to be 0.178 µM. Further, in test [2], inhibition was half-maximal at 0.012 µM (IC50).
Consider `CN(C)C(=O)C12CCC(Nc3cc(-c4ccc5cc(C#N)cnn45)ncc3C(=O)NC[C@@H](F)C(C)(C)O)(CC1)CC2` [Example 415, (R)-6-(3-cyanopyrrolo[1,2-b]pyridazin-7-yl)-4-((4-(dimethylcarbamoyl)bicyclo[2.2.2]octan-1-yl)amino)-N-(2-fluoro-3-hydroxy-3-methyl-butyl)nicotinamide], for which the EC50 in test [1] stood at 0.014 µM. For the same molecule, in test [2], the IC50 came to 0.001 µM.
As to `CNC(=O)C12CCC(Nc3cc(-c4ccc5cc(C#N)cnn45)ncc3C(=O)NC[C@@H](F)C(C)(C)O)(CC1)CC2` [Example 416, 6-(3-cyanopyrrolo[1,2-b]pyridazin-7-yl)-N-((R)-2-fluoro-3-hydroxy-3-methylbutyl)-4-((4-(methylcarbamoyl)bicyclo[2.2.2]octan-1-yl)amino)nicotinamide], in test [1], the EC50 was 0.016 µM. In test [2], this molecule gave an IC50 of 0.001 µM.
Turning to `CC(=O)OC12CCC(Nc3cc(-c4ccc5cc(C#N)cnn45)ncc3C(=O)NC[C@@H](F)C(C)(C)OC(C)=O)(CC1)CC2` [Example 417, 4-((5-(((R)-3-acetoxy-2-fluoro-3-methylbutyl)carbamoyl)-2-(3-cyanopyrrolo[1,2-b]pyridazin-7-yl)pyridin-4-yl)amino)bicyclo[2.2.2]octan-1-yl acetate], the EC50 in test [1] turned out to be 0.151 µM. In addition, in test [2], the IC50 worked out at 0.005 µM.
Turning to `CC(=O)OC12CCC(Nc3cc(-c4ccc5cc(C#N)cnn45)ncc3C(=O)NC[C@@H](F)C(C)(C)O)(CC1)CC2` [Example 418, 4-((2-(3-cyanopyrrolo[1,2-b]pyridazin-7-yl)-5-(((R)-2-fluoro-3-hydroxy-3-methylbutyl)carbamoyl)pyridin-4-yl)amino)bicyclo[2.2.2]octan-1-yl acetate], the EC50 in test [1] was found to be 0.036 µM. For the same molecule, inhibition in test [2] was half-maximal at 0.001 µM (IC50).
The corresponding values for `CC(C)(O)[C@H](F)CNC(=O)c1cnc(-c2ccc3cc(C#N)cnn23)cc1NC1C2CC3CC1CC(O)(C3)C2` (stereo partly drawn) [Example 419, 6-(3-cyanopyrrolo[1,2-b]pyridazin-7-yl)-N-((R)-2-fluoro-3-hydroxy-3-methylbutyl)-4-((5-hydroxyadamantan-2-yl)amino)nicotinamide] are 0.127 µM and 0.003 µM.
The corresponding values for `CC(C)(O)[C@H](F)CNC(=O)c1cnc(-c2ccc3cc(C#N)cnn23)cc1Nc1ncc(C#N)cn1` [Example 420, (R)-4-((5-cyanopyrimidin-2-yl)amino)-6-(3-cyano-pyrrolo[1,2-b]pyridazin-7-yl)-N-(2-fluoro-3-hydroxy-3-methylbutyl)nicotinamide] are 0.122 µM and 0.006 µM.
With `CC(C)(O)[C@H](F)CNC(=O)c1cnc(-c2ccc3cc(C#N)cnn23)cc1NC12CCC(CC1)CC2` [Example 421, (R)-4-(bicyclo[2.2.2]octan-1-ylamino)-6-(3-cyano-pyrrolo[1,2-b]pyridazin-7-yl)-N-(2-fluoro-3-hydroxy-3-methylbutyl)nicotinamide], in test [1], the EC50 stood at 0.024 µM. The molecule also registered an IC50 in test [2] of 0.002 µM.
As for `CC(C)(O)[C@H](F)CNC(=O)c1cnc(-c2ccc3cc(C#N)cnn23)cc1N[C@H]1CC[C@H](NC(=O)C2(F)CC2)CC1` [Example 422, 6-(3-cyanopyrrolo[1,2-b]pyridazin-7-yl)-N-((R)-2-fluoro-3-hydroxy-3-methylbutyl)-4-(((1r,4R)-4-(1-fluorocyclopropane-1-carboxamido)cyclohexyl)amino)nicotinamide], the EC50 in test [1] worked out at 0.076 µM. The same molecule came in with an IC50 in test [2] of 0.002 µM.
For `CC1(C(=O)N[C@H]2CC[C@H](Nc3cc(-c4ccc5cc(C#N)cnn45)ncc3C(=O)NC[C@@H](F)C(C)(C)O)CC2)CC1` [Example 423, 6-(3-cyanopyrrolo[1,2-b]pyridazin-7-yl)-N-((R)-2-fluoro-3-hydroxy-3-methyl-butyl)-4-(((1r,4R)-4-(1-methylcyclopropane-1-carboxamido)cyclohexyl)amino)nicotinamide], in test [1], the EC50 was 0.094 µM. Moreover, 0.002 µM corresponded to half-maximal inhibition in test [2] (IC50).
Turning to `C=CC(=O)NC12CCC(Nc3cc(-c4ccc5cc(C#N)cnn45)ncc3C(=O)NC[C@@H](F)C(C)(C)O)(CC1)CC2` [Example 424, (R)-4-((4-acrylamidobicyclo[2.2.2]octan-1-yl)amino)-6-(3-cyanopyrrolo[1,2-b]pyridazin-7-yl)-N-(2-fluoro-3-hydroxy-3-methyl-butyl)nicotinamide], the EC50 in test [1] came to 0.018 µM. Besides, the IC50 in test [2] was 0.001 µM.
Consider `C=CC(=O)N[C@H]1CC[C@H](Nc2cc(-c3ccc4cc(C#N)cnn34)ncc2C(=O)NC[C@@H](F)C(C)(C)O)CC1` [Example 425, 4-(((1r,4R)-4-acrylamidocyclohexyl)amino)-6-(3-cyano-pyrrolo[1,2-b]pyridazin-7-yl)-N-((R)-2-fluoro-3-hydroxy-3-methylbutyl) nicotinamide], for which the EC50 in test [1] stood at 0.12 µM. The IC50 in test [2] came to 0.002 µM.
Take `N#Cc1cnn2c(-c3cc(N[C@H]4CCC[C@@H](O)C4)c(C(=O)NC4C[C@H]4F)cn3)ccc2c1` (stereo partly drawn) [Example 426, 6-(3-cyanopyrrolo[1,2-b]pyridazin-7-yl)-N-((2R)-2-fluorocyclopropyl)-4-(((1S,3R)-3-hydroxycyclo-hexyl)amino)nicotinamide]: in test [1], the EC50 turned out to be 0.591 µM. Half-maximal inhibition in test [2] (IC50) required 0.005 µM.
Turning to `N#Cc1cnn2c(-c3cc(N[C@H]4CCC[C@@H](O)C4)c(C(=O)NC4CC5(C4)CC(F)(F)C5)cn3)ccc2c1` [Example 427, 6-(3-cyanopyrrolo[1,2-b]pyridazin-7-yl)-N-(6,6-difluorospiro[3.3]heptan-2-yl)-4-(((1S,3R)-3-hydroxycyclohexyl)amino) nicotinamide], in test [1], the EC50 stood at 0.278 µM. It took 0.002 µM to reach half-maximal inhibition in test [2] (IC50).
In the case of `N#Cc1cnn2c(-c3cc(N[C@H]4CCC[C@@H](O)C4)c(C(=O)NCC4(C#N)CC4)cn3)ccc2c1` [Example 428, N-((1-cyanocyclopropyl)methyl)-6-(3-cyano-pyrrolo[1,2-b]pyridazin-7-yl)-4-(((1S,3R)-3-hydroxycyclohexyl)amino)nicotinamide], in test [1], the EC50 was 4.27 µM. Besides, the midpoint of inhibition in test [2], the IC50, lay at 0.063 µM.
For the molecule `CC(C)(O)[C@H](F)CNC(=O)c1cnc(-c2ccc3cc(C#N)cnn23)cc1N[C@]1(C)C[C@@H](O)C1` [Example 429, 6-(3-cyanopyrrolo[1,2-b]pyridazin-7-yl)-N-((R)-2-fluoro-3-hydroxy-3-methylbutyl)-4-(((1r,3R)-3-hydroxy-1-methylcyclo-butyl)amino)nicotinamide], in test [1], the EC50 is 0.036 µM. In test [2], the IC50 came out at 0.001 µM.
Consider `N#Cc1cnn2c(-c3cc(N[C@H]4CCC[C@@H](O)C4)c(C(=O)NC4CC4(F)F)cn3)ccc2c1` (stereo partly drawn) [Example 430, 6-(3-cyanopyrrolo[1,2-b]pyridazin-7-yl)-N-(2,2-difluorocyclopropyl)-4-(((1S,3R)-3-hydroxy-cyclohexyl)amino) nicotinamide], for which the EC50 in test [1] amounted to 0.488 µM. In addition, in test [2], the IC50 turned out to be 0.014 µM.
